In patent publication US9751830B2, “Inhibitors of the tumor necrosis factor receptor complex” (The Trustees of the University of Pennsylvania, priority 2010, dated 2017):

What was measured:
[1] = test system: TNFα mediated NFκB activity (A549Luc cells); assay: TNFα mediated NFκB luciferase reporter assay in A549Luc cells; type: cell-based, human; conditions: for inhibition of TNFα mediated luciferase activity: 1 hr pre-treatment, 20 ng/ml TNFα 4 hours, FIG. 7; for activity to reduce luciferase activity, F002 and MH0724 compared: concentrations up to 75 μM
Method: To study TNFα mediated-NFκB activity, a luciferase reporter system was established. The stable cell line A549Luc was derived from human A549 cells with chromosomal integration of a luciferase reporter construct regulated by 6 copies of the NFκB response element. This clonal cell line was obtained by co-transfection of pNFκB-TA-luc and pFLAG-TNFR1-neo followed by G418 selection at 800 μg/ml. A549Luc cells were pre-treated with inhibitors at indicated concentrations for 1 hr before incubation with 20 ng/ml TNFα for 4 hours. Increased luciferase activity was recorded after TNFα treatment. Luciferase activity was determined using the Luciferase Assay System from Promega.
In this assay, the luciferase activity of A549Luc cells before and after TNFα treatment (20 ng/ml) was equivalent to 0% and 100%, respectively.

[2] = molecular target: T1, TNFR1 ectodomain (TNFR1 ECD) (Homo sapiens, UniProt P19438); assay: Isothermal titration calorimetry (ITC) binding to TNFR1 ectodomain; conditions: 25° C., pH 8.0, 5% DMSO, estimated, read-out: affinity between compound and TNFR1 ECD
T1 construct: The calorimetric cell containing purified TNFR1 ectodomain at a concentration of 0.1 mM; His; made in house
T1 sequence (P19438 30-211 limits assumed): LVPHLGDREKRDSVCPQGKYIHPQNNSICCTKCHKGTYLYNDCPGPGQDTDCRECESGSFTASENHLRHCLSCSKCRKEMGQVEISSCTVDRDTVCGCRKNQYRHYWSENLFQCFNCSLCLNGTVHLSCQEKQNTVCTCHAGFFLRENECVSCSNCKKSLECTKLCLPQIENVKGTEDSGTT
Method: Human TNFR1 ectodomain was expressed in bacteria as described Murali, et al., 2005 PNAS 102:10970-75, which is incorporated by reference herein in its entirety. The His-tagged recombinant protein was purified from bacterial cell lysate using Ni-NTA column About 4 mg proteins were obtained from 6 liters of culture. The purified TNFR1 ectodomain was verified for binding activity to hTNF-α in ELISA assay.
Isothermal Titration calorimetry (ITC). The binding thermodynamics of MH724 to TNFR1 was measured by ITC using a high precision VP-ITC titration calorimetric system (Microcal LLC, Northampton, Mass.). The calorimetric cell containing purified TNFR1 ectodomain at a concentration of 0.1 mM in 50 mM sodium phosphate buffer (pH 8.0) containing 300 mM NaCl and 5% DMSO was titrated with MH724 dissolved in the same buffer. The concentration of inhibitor was 2 mM. Injection volumes were 8 μl. All solutions were properly degassed to avoid any formation of bubbles in the calorimeter during stirring. The heat evolved upon each injection of inhibitor was obtained from the integral of the calorimetric signal. The heat associated with the binding of the inhibitor to TNFR1 was obtained by subtracting the heat of dilution from the heat of reaction. The measurements were made at 25° C. Data were analyzed and fitted by using the data analysis software supplied by Microcal (ORIGIN 5.0).

L929 cells = assay: Inhibition of TNF-α-induced cytolysis in L929 cells (Crystal Violet staining); type: cell-based, murine
Method: L929 cultured murine fibroblast cells were obtained from American Type Culture collection (Manassas, Va.). TNF-α was obtained from Roche Applied Science (T6674). Actinomycin D (ACTD) and Crystal Violet were obtained from Sigma-Aldrich. Testing compounds were dissolved in DMSO at 25 mM. Compounds F001 and FT002/F002, appearing in FIG. 3 and FIG. 2/FIG. 4, were described previously in application Ser. No. 11/815,134 as FIGS. 1-6 and 1-9, respectively, and are reproduced here for reference. Compound 71023, appearing in FIG. 1, was ([(aminocarbothioyl)amino]{[4-({[[(aminocarbothioyl)amino](ammonio)methyl]amino}methyl)-2,5-dimethylbenzyl]amino}methylidene)ammonium dichloride, available from Maybridge Chemicals, UK. Compound MH_072 (also described herein as the compound of formula (II)) was also obtained from Maybridge Chemicals, UK. Compound MH_0724 was synthesized by Sapient Discovery, San Diego, Calif., as described in Example 2.
(§1) Stock L929 cells were grown on tissue culture plastic in complete Dulbecco's Modified Eagle Medium (DMEM) supplemented with 5 weight percent FBS [Fetal Bovine Serum], NEAA [non-essential amino acids], and glutamine. In a first set of experiments, L929 cells were plated using the same medium on 96-well tissue culture plates at high density (i.e., 30,000 cells/well) before use. In a second set of experiments, the testing compounds were pre-incubated with cells for 1 hour. hTNF-α (10 ng/ml) was added to cells for 30 minutes. Cell lysates were then collected for routine Western Blot.
(§2) Approximately 20 hours after plating the L929 cells on 96-well plates, they were re-fed onto fresh medium containing the test compounds (from 0 to 100 μM, final concentration).
For the TNF-α challenges, approximately 30 minutes later, medium containing 4 unit/mL rh-TNF-α and actinomycin D (10 μg/mL) was added. The final concentrations of rh-TNF-α in the assays were […], which is the ED50 concentrations confirmed to induce 50% cell death. The final concentrations of actinomycin D in the assays were 2.5 μg/mL. The plates were incubated for an additional 16-20 hours at 37° C., 5 vol % CO2 in air.
For Crystal Violet staining, the culture medium was discarded and replaced with 0.2% by weight (in 2% by volume ethanol in water), 100 μL/well. After 15 minutes incubation at room temperature, the plates were washed 6 times with deionized water and dried at 37° C. for 40 minutes. Sodium dodecylsylfate (SDS), (1 wt % in water; 100 μL) was added to each well and mixed gently for 1 hour at room temperature. The plates were read at A570 nm

[3] = test system: phosphorylation of IκB (p-IκBα(Ser32)); assay: Western blot of TNFα-induced phosphorylation of IκB in L929 cells; type: cell-based, murine; conditions: FIG. 4
Method: (§3) hTNF-α was obtained from Sigma (Cat # T6674). Antibodies for IκB, phospho-IκB, p38, and phospho-p38 were purchased from Cell Signaling.
as §1
(§4) Inhibition of TNFα signaling pathways: Upon binding to TNFRs, TNFα induces inflammation through the activation of NFκB and p38 signaling pathways. We determined IκB and p38 effects. IκB is the inhibitor for NFκB. TNFα leads to the phosphorylation and disassociation of IκB from NFκB, a signaling event required for NFκB to become activated and translocate into the nucleus to mediate gene transcription.

[4] = test system: phosphorylation of p38 (p-p38); assay: Western blot of TNFα-induced phosphorylation of p38 in L929 cells; type: cell-based, murine; conditions: 50 μM; 1 hour pre-incubation, hTNF-α 10 ng/ml 30 minutes; FIG. 4
Method: as §3, §1, §4

[5] = Solubility under the conditions of the L929 cytolysis assay; type: physicochemical; conditions: L929 cytolysis assay medium, plasma or biological fluid; read-out: soluble under these conditions only up to
Method: as §2

For COC(CNc1ccc(C(F)(F)F)cc1)COc1ccccc1COC(C)=O (stereo not shown) [MH_0724, Acetic acid 2-[2-methoxy-3-(4-trifluoromethyl-phenylamino)-propoxy]-benzyl ester], the “luciferase activity, of the control” value ([1]; 100 μM, before and after TNFα treatment = 0% and 100%) was “less than 40%”, the “inhibition of TNFα mediated luciferase activity” value [1] was “dose-dependent manner” and the “activity to reduce luciferase activity, F002 and MH0724 compared” value [1] was “comparable activity”. The Kd [2] was 32 µM, the inhibition at 100 µM (L929 cells; Mus musculus, L929, 100 μM, read-out: maximal inhibition of TNF-α-induced cytolysis) was roughly 70% and the inhibition at 50 µM (L929 cells; Mus musculus, L929, at 50 μM) was roughly 40%. The “inhibition of TNF-α-induced cytolysis” value (L929 cells; at 50 μM) was “about 40%”, the “inhibition of TNF-α-induced cytolysis in L929 cells” value (“inhibition … in L929 cells” for short) (L929 cells; from 0 to 100 μM, FIG. 3) was “dose-dependent inhibition” and the “inhibition of TNFα-induced phosphorylation of IκB” value ([3]; 50 μM, 1 hour pre-incubation, hTNF-α 10 ng/ml 30 minutes) was “clearly inhibits”. The “activity on TNFα signaling, MH724 compared with F002” value ([3]; 50 μM, IκB and p38 phosphorylation) was “better activity” and the “inhibition of TNFα-induced phosphorylation of p38” value [4] was “clearly inhibits”.

With CC(=O)Oc1ccc(C(O)(c2ccc(OC(C)=O)cc2)c2ccc(OC(C)=O)cc2)cc1 [Compound F002, reference compound] the “inhibition of TNFα mediated luciferase activity” value [1] was “dose-dependent manner”, the “activity to reduce luciferase activity, F002 and MH0724 compared” value [1] was “comparable activity” and the “activity on TNFα signaling, F002 compared with MH724” value ([3]; 10 μM, IκB and p38 phosphorylation) was “slightly more activity”.

In the case of COc1ccc(C(O)(c2ccc(OC)cc2)c2ccc(OC)cc2)cc1 [Compound F001, reference compound], the “inhibition … in L929 cells” value (L929 cells; from 0 to 100 μM, FIG. 3) is reported as “minimal activity”.

With CC(=O)Nc1ccccc1OCC(O)CNCc1ccc(C(F)(F)F)cc1 (stereo not shown) [MH_072] the “maximum inhibition of TNF-α-induced cytolysis” value (L929 cells; 0 to 50 μM, level limited by solubility) was “about 30%”, the inhibition at 50 µM (L929 cells; Mus musculus, L929, at 50 μM) was roughly 30% and the “inhibition … in L929 cells” value (L929 cells; from 0 to 50 μM, FIG. 2) was “dose-dependent inhibition”. For the same compound, the solubility [5] was no more than 50 µM.
